Data from ChEMBL document CHEMBL3885881, “DrugMatrix”.

Species on record: Rattus norvegicus
Assay: DrugMatrix - Regimen: Daily Repeat
Format: toxicity, organism-based, Sprague-Dawley
Set-up: regimen Daily Repeat, gender Male, age 6-8 weeks
Details: in vivo, po, route oral GAVAGE, vehicle 100 % WATER; for ABSOLUTE BASOPHIL / ABSOLUTE EOSINOPHIL / ABSOLUTE LYMPHOCYTE / ABSOLUTE MONOCYTE / ABSOLUTE SEGMENTED NEUTROPHIL / BASOPHIL / EOSINOPHIL / ERYTHROCYTE COUNT / HEMATOCRIT / HEMOGLOBIN / LEUKOCYTE COUNT / LYMPHOCYTE / MEAN CORPUSCULAR HEMOGLOBIN / MEAN CORPUSCULAR HEMOGLOBIN CONCENTRATION / MEAN CORPUSCULAR VOLUME / MONOCYTE / NEUTROPHIL / NUCLEATED RED BLOOD CELLS / PLATELET COUNT: tissue Blood; for ALANINE AMINOTRANSFERASE / ALBUMIN / ALKALINE PHOSPHATASE / ASPARTATE AMINOTRANSFERASE / BLOOD UREA NITROGEN / CARBON DIOXIDE / CHLORIDE / CHOLESTEROL / CREATINE PHOSPHOKINASE / CREATININE / GLUCOSE / LACTATE DEHYDROGENASE / LIPASE / PHOSPHORUS / POTASSIUM / SODIUM / TOTAL BILIRUBIN / TOTAL PROTEIN / URIC ACID: tissue Plasma
[1] = 300 mg/kg, 120 h, dose level Low, time 5 day
[2] = 3000 mg/kg, 72 h, dose level High, time 3 day
[3] = 3000 mg/kg, 120 h, dose level High, time 5 day

CC(Cl)(Cl)Cl [TRICHLOROETHANE]
ABSOLUTE BASOPHIL [1]: 0 CELLS/uL | ABSOLUTE EOSINOPHIL [1]: 0 CELLS/uL | ABSOLUTE LYMPHOCYTE [1]: 11569 CELLS/uL | ABSOLUTE MONOCYTE [1]: 149.67 CELLS/uL | ABSOLUTE SEGMENTED NEUTROPHIL [1]: 1081.33 CELLS/uL | BASOPHIL [1]: 0% | EOSINOPHIL [1]: 0% | ERYTHROCYTE COUNT [1]: 5.76 x10E6/uL | HEMATOCRIT [1]: 36.17% | HEMOGLOBIN [1]: 14.07 G/DL | LEUKOCYTE COUNT [1]: 12.8 x10E3/uL | LYMPHOCYTE [1]: 90% | MEAN CORPUSCULAR HEMOGLOBIN [1]: 24.43 pg | MEAN CORPUSCULAR HEMOGLOBIN CONCENTRATION [1]: 38.9 G/DL | MEAN CORPUSCULAR VOLUME [1]: 62.7 fL | MONOCYTE [1]: 1% | NEUTROPHIL [1]: 9% | NUCLEATED RED BLOOD CELLS [1]: 0.33 /100WBC | PLATELET COUNT [1]: 1070.67 x10E3/uL | ALANINE AMINOTRANSFERASE [1]: 50.33 u/L | ALBUMIN [1]: 4.07 G/DL | ALKALINE PHOSPHATASE [1]: 394 u/L | ASPARTATE AMINOTRANSFERASE [1]: 95 u/L | BLOOD UREA NITROGEN [1]: 16.33 mg/dL | CARBON DIOXIDE [1]: 32.33 mmol/L | CHLORIDE [1]: 103.33 MEQ/L | CHOLESTEROL [1]: 65 mg/dL | CREATINE PHOSPHOKINASE [1]: 400 u/L | CREATININE [1]: 0.17 mg/dL | GLUCOSE [1]: 135.67 mg/dL | LACTATE DEHYDROGENASE [1]: 117.67 u/L | LIPASE [1]: 10.67 u/L | PHOSPHORUS [1]: 11.3 mg/dL | POTASSIUM [1]: 6.41 MEQ/L | SODIUM [1]: 148.03 MEQ/L | TOTAL BILIRUBIN [1]: 0.2 mg/dL | TOTAL PROTEIN [1]: 6.03 G/DL | URIC ACID [1]: 0.9 mg/dL | ABSOLUTE BASOPHIL [2]: 0 CELLS/uL | ABSOLUTE EOSINOPHIL [2]: 0 CELLS/uL | ABSOLUTE LYMPHOCYTE [2]: 11145.5 CELLS/uL | ABSOLUTE MONOCYTE [2]: 120.5 CELLS/uL | ABSOLUTE SEGMENTED NEUTROPHIL [2]: 784 CELLS/uL | BASOPHIL [2]: 0% | EOSINOPHIL [2]: 0% | ERYTHROCYTE COUNT [2]: 6.08 x10E6/uL | HEMATOCRIT [2]: 38.1% | HEMOGLOBIN [2]: 14.85 G/DL | LEUKOCYTE COUNT [2]: 12.05 x10E3/uL | LYMPHOCYTE [2]: 92.5% | MEAN CORPUSCULAR HEMOGLOBIN [2]: 24.45 pg | MEAN CORPUSCULAR HEMOGLOBIN CONCENTRATION [2]: 39 G/DL | MEAN CORPUSCULAR VOLUME [2]: 62.65 fL | MONOCYTE [2]: 1% | NEUTROPHIL [2]: 6.5% | NUCLEATED RED BLOOD CELLS [2]: 0.5 /100WBC | PLATELET COUNT [2]: 1361.5 x10E3/uL | ALANINE AMINOTRANSFERASE [2]: 49.5 u/L | ALBUMIN [2]: 4.15 G/DL | ALKALINE PHOSPHATASE [2]: 322 u/L | ASPARTATE AMINOTRANSFERASE [2]: 87.5 u/L | BLOOD UREA NITROGEN [2]: 11.5 mg/dL | CARBON DIOXIDE [2]: 33 mmol/L | CHLORIDE [2]: 102.5 MEQ/L | CHOLESTEROL [2]: 91.5 mg/dL | CREATINE PHOSPHOKINASE [2]: 450 u/L | CREATININE [2]: 0.17 mg/dL | GLUCOSE [2]: 131 mg/dL | LACTATE DEHYDROGENASE [2]: 260 u/L | LIPASE [2]: 9.5 u/L | PHOSPHORUS [2]: 9.5 mg/dL | POTASSIUM [2]: 5.71 MEQ/L | SODIUM [2]: 148.15 MEQ/L | TOTAL BILIRUBIN [2]: 0.1 mg/dL | TOTAL PROTEIN [2]: 6.35 G/DL | URIC ACID [2]: 0.5 mg/dL | ABSOLUTE BASOPHIL [3]: 0 CELLS/uL | ABSOLUTE EOSINOPHIL [3]: 0 CELLS/uL | ABSOLUTE LYMPHOCYTE [3]: 9273 CELLS/uL | ABSOLUTE MONOCYTE [3]: 138.67 CELLS/uL | ABSOLUTE SEGMENTED NEUTROPHIL [3]: 1121.67 CELLS/uL | BASOPHIL [3]: 0% | EOSINOPHIL [3]: 0% | ERYTHROCYTE COUNT [3]: 5.95 x10E6/uL | HEMATOCRIT [3]: 36.77% | HEMOGLOBIN [3]: 13.97 G/DL | LEUKOCYTE COUNT [3]: 10.53 x10E3/uL | LYMPHOCYTE [3]: 87.67% | MEAN CORPUSCULAR HEMOGLOBIN [3]: 23.57 pg | MEAN CORPUSCULAR HEMOGLOBIN CONCENTRATION [3]: 37.97 G/DL | MEAN CORPUSCULAR VOLUME [3]: 62 fL | MONOCYTE [3]: 1.33% | NEUTROPHIL [3]: 11% | NUCLEATED RED BLOOD CELLS [3]: 0 /100WBC | PLATELET COUNT [3]: 1168 x10E3/uL | ALANINE AMINOTRANSFERASE [3]: 46.33 u/L | ALBUMIN [3]: 4.03 G/DL | ALKALINE PHOSPHATASE [3]: 272 u/L | ASPARTATE AMINOTRANSFERASE [3]: 71 u/L | BLOOD UREA NITROGEN [3]: 14.33 mg/dL | CARBON DIOXIDE [3]: 30.67 mmol/L | CHLORIDE [3]: 100.33 MEQ/L | CHOLESTEROL [3]: 74 mg/dL | CREATINE PHOSPHOKINASE [3]: 156.67 u/L | CREATININE [3]: 0.17 mg/dL | GLUCOSE [3]: 120.67 mg/dL | LACTATE DEHYDROGENASE [3]: 107 u/L | LIPASE [3]: 10.33 u/L | PHOSPHORUS [3]: 12.33 mg/dL | POTASSIUM [3]: 6.12 MEQ/L | SODIUM [3]: 147.17 MEQ/L | TOTAL BILIRUBIN [3]: 0.13 mg/dL | TOTAL PROTEIN [3]: 6.2 G/DL | URIC ACID [3]: 1.1 mg/dL
